From US20190010158A1, “ANTITUMOR EFFECT POTENTIATOR COMPRISING PYRROLOPYRIMIDINE COMPOUND” (TAIHO PHARMACEUTICAL CO., LTD, priority 2015, published 2019)

Experiments:
[1] = system: human acute myelogenous leukemia (AML) THP-1 cell lines; experiment: Example 21: tumor growth inhibition in mice, combinational treatment with azacytidine; format: in vivo; settings: THP-1 in mice; intraperitoneally 20 mg/kg/day, days 1, 4, 8, 11, 15, 18; day 22
Source text: RTVn=TVn/TV1 (equation D)
BWCn (%)=(BWn−BW1)/BW1×100 (equation F)
The test ended on day 22.

[2] = molecular target: carbonic anhydrase II (Homo sapiens, UniProt P00918); settings: background art, Non-patent Literature 8; cited from earlier work
[3] = background art, Non-patent Literature 7; decrease in plasma concentration; cited from earlier work

Structure (SMILES) | BWC22 (%) Mean ± SD [1] [%] | RTV22 Mean ± SD [1] | T/C22 (%) [1] [%] | inhibition of carbonic anhydrase II activity [2] | transfer of administered drug to red blood cells in the blood [3]
Nc1ncn([C@@H]2O[C@H](CO)[C@@H](O)[C@H]2O)c(=O)n1 [azacytidine] | 3.6 ± 4.5 | 8.8 ± 2.0 | 45 |  | 
NS(=O)(=O)OC[C@@H]1C[C@@H](n2ccc3c(N[C@H]4CCc5ccccc54)ncnc32)C[C@@H]1O [MLN4924, N-[(1S)-1-indanyl]-7-[(1R)-3α-hydroxy-4α-(sulfamoyloxymethyl)cyclopentyl]-7H-pyrrolo[2,3-d]pyrimidin-4-amine] |  |  |  | inhibits the activity | transferred to red blood cells
